Source: PubChem BioAssay (NCI)
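How tested: cells in 96-well plates exposed to compound for 48 hours at five concentrations. At the TGI there is no net growth.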

Columns and labels:
Test in all cases: NCI-60 cell line screen, 48 h
[1] = test system: SK-MEL-2 melanoma
[2] = test system: HOP-92 NSCLC
[3] = test system: NCI-H522 lung
[4] = test system: MDA-MB-231 breast
[5] = test system: OVCAR-8 ovarian
[6] = test system: SF-268 CNS
[7] = test system: NCI-H226 lung
[8] = test system: SK-OV-3 ovarian
[9] = test system: SF-539 CNS
[10] = test system: SK-MEL-28 melanoma
[11] = test system: MALME-3M melanoma
[12] = test system: MOLT-4 leukemia
[13] = test system: SF-295 CNS
[14] = test system: K-562 leukemia
[15] = test system: SN12C renal
[16] = test system: NCI/ADR-RES ovarian
[17] = test system: OVCAR-4 ovarian
[18] = test system: TK-10 renal
[19] = test system: EKVX NSCLC
[20] = test system: 786-0 renal
[21] = test system: HCC-2998 colon
[22] = test system: SK-MEL-5 melanoma
[23] = test system: KM12 colon
[24] = test system: HCT-15 colon
[25] = test system: SW-620 colon
[26] = test system: UO-31 renal
[27] = test system: RXF 393 renal
[28] = test system: M14 melanoma
[29] = test system: HOP-62 NSCLC
[30] = test system: CAKI-1 renal
[31] = test system: NCI-H23 lung
[32] = test system: SNB-75 CNS
[33] = test system: LOX IMVI melanoma
[34] = test system: PC-3 prostate
[35] = test system: UACC-257 melanoma
[36] = test system: MDA-MB-435
[37] = test system: HS 578T breast
[38] = test system: SNB-19 CNS
[39] = test system: HL-60(TB) leukemia
[40] = test system: T-47D breast
[41] = test system: UACC-62 melanoma
[42] = test system: A549 NSCLC
[43] = test system: IGROV1 ovarian
[44] = test system: OVCAR-5 ovarian
[45] = test system: HCT-116 colon
[46] = test system: CCRF-CEM leukemia
[47] = test system: ACHN renal
[48] = test system: COLO 205 colon
[49] = test system: U251 CNS
[50] = test system: MDA-N
[51] = test system: NCI-H460 lung
[52] = test system: DU-145 prostate
[53] = test system: A498 renal
[54] = test system: SR leukemia
[55] = test system: OVCAR-3 ovarian
[56] = test system: HT29 colon
[57] = test system: BT-549 breast
[58] = test system: RPMI-8226 leukemia
[59] = test system: MCF7 breast

Measured: TGI

CCCCCC(=O)Nc1n[nH]nc1C#N
> 100 µM: [1] | [2] | [3] | [4] | [5] | [6] | [7] | [8] | [9] | [10] | [11] | [12] | [13] | [14] | [15] | [16] | [17] | [18] | [19] | [20] | [21] | [22] | [23] | [24] | [25] | [26] | [27] | [28] | [29] | [30] | [31] | [32] | [33] | [34] | [35] | [36] | [37] | [38] | [39] | [40] | [41] | [42] | [43] | [44] | [45] | [46] | [47] | [48] | [49] | [50] | [51] | [52] | [53] | [54] | [55] | [56] | [57] | [58] | [59]

CC1(C)OCC(C2OC3OC(C)(C)OC3C2N)O1 (stereo not drawn)
> 100 µM: [1] | [2] | [3] | [4] | [5] | [6] | [7] | [8] | [9] | [10] | [11] | [12] | [13] | [14] | [15] | [16] | [17] | [18] | [19] | [20] | [21] | [22] | [23] | [24] | [25] | [26] | [27] | [28] | [29] | [30] | [31] | [32] | [33] | [34] | [35] | [36] | [37] | [38] | [39] | [40] | [41] | [42] | [43] | [44] | [45] | [46] | [47] | [48] | [49] | [50] | [51] | [52] | [53] | [54] | [55] | [56] | [57] | [58] | [59]
